Where two headings read alike, the source gives them in different places.
Tests used:
DENV2 New Guinea C = assay: Anti-Dengue virus cytoprotection assay; format: cell-based, Dengue virus type 2
Description: Cell Preparation—BHK21 cells (Syrian golden hamster kidney cells, ATCC catalog #CCL-I 0), Vero cells (African green monkey kidney cells, ATCC catalog #CCL-81), or Huh-7 cells (human hepatocyte carcinoma) were passaged in DMEM supplemented with 10% FBS, 2 mM L-glutamine, 100 U/mL penicillin, and 100 μg/mL streptomycin in T-75 flasks prior to use in the antiviral assay. On the day preceding the assay, the cells were split 1:2 to assure they were in an exponential growth phase at the time of infection. Total cell and viability quantification was performed using a hemocytometer and Trypan Blue dye exclusion. Cell viability was greater than 95% for the cells to be utilized in the assay. The cells were resuspended at 3×10^3 ([…] for Vero cells and Huh-7 cells) cells per well in tissue culture medium and added to flat bottom microtiter plates in a volume of 100 μL. The plates were incubated at 37° C./5% CO2 overnight to allow for cell adherence.
Virus Preparation—The Dengue virus type 2 New Guinea C strain was obtained from ATCC (catalog #VR-1584) and was grown in LLC-MK2 (Rhesus monkey kidney cells; catalog #CCL-7.1) cells for the production of stock virus pools. An aliquot of virus pretitered in BHK21 cells was removed from the freezer (−80° C.) and allowed to thaw slowly to room temperature in a biological safety cabinet. Virus was resuspended and diluted into assay medium (DMEM supplemented with 2% heat-inactivated FBS, 2 mM L-glutamine, 100 U/mL penicillin, and 100 μg/mL streptomycin) such that the amount of virus added to each well in a volume of 100 μL was the amount determined to yield 85 to 95% cell killing at 6 days post-infection.
Plate Format—Each plate contains cell control wells (cells only), virus control wells (cells plus virus), triplicate drug toxicity wells per compound (cells plus drug only), as well as triplicate experimental wells (drug plus cells plus virus).
Efficacy and Toxicity XTT-Following incubation at 37° C. in a 5% CO2 incubator, the test plates were stained with the tetrazolium dye XTT (2,3-bis(2-methoxy-4-nitro-5-sulfophenyl)-5-[(phenylamino)carbonyl]-2H-tetrazolium hydroxide). XTT-tetrazolium was metabolized by the mitochondrial enzymes of metabolically active cells to a soluble formazan product, allowing rapid quantitative analysis of the inhibition of virus-induced cell killing by antiviral test substances. XTT solution was prepared daily as a stock of 1 mg/mL in RPMI 1640. Phenazine methosulfate (PMS) solution was prepared at 0.15 mg/mL in PBS and stored in the dark at −20° C. XTT/PMS stock was prepared immediately before use by adding 40 μL of PMS per ml of XTT solution. Fifty microliters of XTT/PMS was added to each well of the plate and the plate was reincubated for 4 hours at 37° C. Plates were sealed with adhesive plate sealers and shaken gently or inverted several times to mix the soluble formazan product and the plate was read spectrophotometrically at 450/650 nm with a Molecular Devices Vmax plate reader.
Data Analysis —Raw data was collected from the Softmax Pro 4.6 software and imported into a Microsoft Excel spreadsheet for analysis. The percent reduction in viral cytopathic effect compared to the untreated virus controls was calculated for each compound. The percent cell control value was calculated for each compound comparing the drug treated uninfected cells to the uninfected cells in medium alone.

Vero cells = assay: Cytotoxicity in Vero cells (XTT); format: cell-based, African green monkey
Description: (§1) Vero cells were passaged in DMEM medium in T-75 flasks prior to use in the antiviral assay. On the day preceding the assay, the cells were split 1:2 to assure they were in exponential growth phase at the time of infection. The cells were resuspended at […] cells per well in tissue culture medium and added to flat bottom microtiter plates in a volume of […]. The plates were incubated at 37° C./5% CO2 overnight to allow for cell adherence. Separately, Zika virus was titrated in LLCMK2 cells to define the inoculum for use in the antiviral assay. Virus was diluted in DMEM medium such that the amount of virus added to each well in a volume of […] was the amount determined to achieve 85 to 95% cell killing at 5 days post-infection. Following incubation test plates were stained with XTT dye. XTT solution was prepared daily as a stock solution of 1 mg/mL in RPM11640. PMS solution was prepared at 0.15 mg/mL in PBS and stored in the dark at −20° C. XTT/PMS stock was prepared immediately before use by adding […] of PMS per mL of XTT solution. Fifty microliters of XTT/PMS was added to each well of the plate, and the plate was reincubated for 4 hours at 37° C. Plates were sealed with adhesive plate sealers ad shaken gently to mix the soluble formazan product, and the plate was read spectrophotometrically read 450/650 nm with a Molecular Devices Vmax plate reader. The raw data was collected from Softmax Pro and imported into a Microsoft Excel XLfit4 spreadsheet for analysis using four parameter curve fit calculations.

ZIKV [1] = assay: ZIKV infectious (cytoprotection, XTT) assay; format: cell-based, Zika virus; settings: read-out: ZIKV EC50
Description: as §1

HRV-26 = assay: Human rhinovirus assay (HRV-26); format: cell-based; settings: Human rhinovirus sp., HRV26; Cell Line HeLa
ZIKV [2] = assay: ZIKV infectious (cytoprotection, XTT) assay; format: cell-based; settings: Zika virus
[3] = tested on: CC1(O)C(O)[C@@H](COP(=O)(O)OP(=O)(O)OP(=O)(O)O)O[C@H]1n1ccc(=O)[nH]c1=O; assay: purified protein, by the assay type; format: biochemical, Zika virus
[4] = tested on: CC1(O)C(O)[C@@H](COP(=O)(O)OP(=O)(O)OP(=O)(O)O)O[C@H]1n1cnc2c(N)ncnc21; assay: purified protein, by the assay type
[5] = tested on: CC1(O)C(O)[C@@H](COP(=O)(O)OP(=O)(O)OP(=O)(O)O)O[C@H]1n1cnc2c(=O)[nH]c(N)nc21; assay: purified protein, by the assay type
[6] = tested on: C#CC1(O)C(O)[C@@H](COP(=O)(O)OP(=O)(O)OP(=O)(O)O)O[C@H]1n1ccc(=O)[nH]c1=O; assay: purified protein, by the assay type
[7] = tested on: C#CC1(O)C(O)[C@@H](COP(=O)(O)OP(=O)(O)OP(=O)(O)O)O[C@H]1n1cnc2c(N)ncnc21; assay: purified protein, by the assay type
[8] = tested on: CC1(O)C(O)[C@@H](COP(=O)(O)OP(=O)(O)OP(=O)(O)O)O[C@H]1n1ccc(N)nc1=O; assay: purified protein, by the assay type
ZIKV NS5 RdRp = target: T1, ZIKV NS5 RdRp (Zika virus, UniProt Q32ZE1); format: biochemical; settings: analog triphosphates against ZIKV NS5 RdRp
T1 construct: activity of select analog triphosphates against the ZIKV NS5 RdRp
T1 sequence (Q32ZE1 2517-3419): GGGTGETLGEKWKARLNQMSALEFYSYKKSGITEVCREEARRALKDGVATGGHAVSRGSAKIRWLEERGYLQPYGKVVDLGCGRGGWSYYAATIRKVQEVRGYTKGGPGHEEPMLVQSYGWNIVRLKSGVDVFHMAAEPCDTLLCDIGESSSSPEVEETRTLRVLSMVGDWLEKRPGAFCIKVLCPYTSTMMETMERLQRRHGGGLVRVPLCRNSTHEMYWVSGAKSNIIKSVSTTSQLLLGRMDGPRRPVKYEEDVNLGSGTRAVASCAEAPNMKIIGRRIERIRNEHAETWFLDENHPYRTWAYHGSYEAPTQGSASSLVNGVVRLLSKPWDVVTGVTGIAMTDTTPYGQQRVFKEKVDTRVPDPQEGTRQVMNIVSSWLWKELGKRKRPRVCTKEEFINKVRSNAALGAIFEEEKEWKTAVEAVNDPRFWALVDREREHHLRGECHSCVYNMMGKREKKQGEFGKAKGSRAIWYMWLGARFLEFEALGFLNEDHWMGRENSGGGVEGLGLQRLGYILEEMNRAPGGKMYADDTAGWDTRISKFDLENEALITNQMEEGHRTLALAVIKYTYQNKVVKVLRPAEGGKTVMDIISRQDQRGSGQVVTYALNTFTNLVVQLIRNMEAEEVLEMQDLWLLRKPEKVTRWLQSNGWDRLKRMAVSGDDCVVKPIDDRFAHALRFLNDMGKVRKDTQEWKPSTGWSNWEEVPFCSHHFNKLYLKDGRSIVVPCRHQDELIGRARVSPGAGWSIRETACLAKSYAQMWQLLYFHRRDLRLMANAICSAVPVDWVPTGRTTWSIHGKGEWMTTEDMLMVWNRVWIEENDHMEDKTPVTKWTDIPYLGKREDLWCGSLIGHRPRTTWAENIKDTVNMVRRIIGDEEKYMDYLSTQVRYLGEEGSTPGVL

[9] = Cytotoxicity in Vero cells (XTT); format: cell-based, African green monkey; settings: African green monkey
Description: as §1

[10] = Zika virus, Vero, Cell Line Vero
[11] = Huh-7, Cell Line Huh-7, read-out: ZIKV EC50
[12] = Zika virus, Vero, ZIKV infectious assay, Vero cells

C#C[C@@]1(O)[C@H](O)[C@@H](CO)O[C@H]1n1cnc2cnc(N)nc21 [drawing 741]
EC50 (DENV2 New Guinea C; DENV2, Vero, read-out: DENV2 New Guinea C EC50): > 100 µM

CC1(O)C(O)[C@@H](CO)O[C@H]1n1cnc2c(N)ncnc21 (some centres unmarked) [drawing 675]
CC50 (Vero cells): > 100 µM
EC50 (ZIKV [1]; ZIKV infectious assay, Vero cells): 2460 nM

C#C[C@@]1(O)[C@H](O)[C@@H](CO[P@@](=O)(N[C@@H](C)C(=O)OC(C)C)Oc2ccccc2)O[C@H]1n1ccc(=O)[nH]c1=O [drawing 742]
EC50 (HRV-26): 3.22 µM

C#C[C@@]1(O)[C@H](O)[C@@H](CO)O[C@H]1n1cnc2cnc(N)nc21 [drawing 751]
EC50 (ZIKV [1]; [10]): > 100000 nM

C#C[C@@]1(O)[C@H](O)[C@@H](CO)O[C@H]1n1cnc2cnc(N)nc21 [drawing 747]
EC50 (ZIKV [2]; HeLa, Cell Line HeLa, read-out: ZIKV EC50): > 100 µM

C#CC1(O)C(O)[C@@H](COP(=O)(OCOC(=O)C(C)(C)C)OCOC(=O)C(C)(C)C)O[C@H]1n1cc(F)c(=O)[nH]c1=O (some centres unmarked)
EC50 (ZIKV [2]; [11]): 5.3 µM

C#C[C@@]1(O)[C@H](O)[C@@H](CO[P@@](=O)(N[C@@H](C)C(=O)OC(C)C)Oc2ccccc2)O[C@H]1n1ccc2c(N)ncnc21 [drawing 744]
EC50 (ZIKV [2]; Huh-7, read-out: ZIKV EC50): 0.001 µM

C#C[C@@]1(O)[C@H](O)[C@@H](CO)O[C@H]1n1ccc(=O)[nH]c1=O
EC50 (ZIKV [2]; [11]): > 100 µM
EC50 (ZIKV [1]; [10]): > 100000 nM

C#C[C@@]1(O)[C@H](O)[C@@H](CO[P@@](=O)(N[C@@H](C)C(=O)OC(C)C)Oc2ccccc2)O[C@H]1n1ccc2c(N)ncnc21 [drawing 740]
EC50 (DENV2 New Guinea C; DENV2, BHK-21, read-out: DENV2 New Guinea C EC50): 27.7 µM

ZIKV NS5 RdRp (Zika virus)
Km [3]: 72.82 µM
Km [4]: 3.03 µM
Km [5]: 2.82 µM
Km [6]: 6.59 µM
Km [7]: 1.26 µM
Km [8]: 1.45 µM

C#CC1(O)C(O)[C@@H](COP(=O)(O)OP(=O)(O)OP(=O)(O)O)O[C@H]1n1cnc2c(N)ncnc21 (some centres unmarked)
ZIKV Polymerase Assay Discrimination (ZIKV NS5 RdRp): 5

CC1(O)C(O)[C@@H](CO)O[C@H]1n1cnc2c(N)ncnc21 (some centres unmarked) [drawing 678]
CC50 at 5 days [9]: > 100 µM
EC50 (ZIKV [1]; [12]): 2750 nM

CC1(O)C(O)[C@@H](COP(=O)(O)OP(=O)(O)OP(=O)(O)O)O[C@H]1n1cnc2c(=O)[nH]c(N)nc21 (some centres unmarked)
ZIKV Polymerase Assay Discrimination (ZIKV NS5 RdRp): 13

CC1(O)C(O)[C@@H](CO)O[C@H]1n1ccc(N)nc1=O (some centres unmarked)
CC50 at 5 days [9]: 9.57 µM
EC50 (ZIKV [1]; [12]): 130 nM

CC1(O)C(O)[C@@H](COP(=O)(O)OP(=O)(O)OP(=O)(O)O)O[C@H]1n1cnc2c(N)ncnc21 (some centres unmarked)
ZIKV Polymerase Assay Discrimination (ZIKV NS5 RdRp): 12

CC1(O)C(O)[C@@H](CO)O[C@H]1n1cnc2c(=O)[nH]c(N)nc21 (some centres unmarked)
CC50 at 5 days [9]: > 100 µM
EC50 (ZIKV [1]; [12]): 7230 nM

C#CC1(O)C(O)[C@@H](CO)O[C@H]1n1ccc2c(N)ncnc21 (some centres unmarked)
CC50 at 5 days [9]: 35.4 µM
EC50 (ZIKV [1]; [12]): 340 nM

C#CC1(O)C(O)[C@@H](COP(=O)(OCOC(=O)C(C)(C)C)OCOC(=O)C(C)(C)C)O[C@H]1n1ccc(=O)[nH]c1=O (some centres unmarked) [drawing 679]
CC50 at 5 days [9]: 11 µM
EC50 (ZIKV [1]; [12]): 1060 nM

C#C[C@@]1(O)[C@H](O)[C@@H](CO)O[C@H]1n1cc(F)c(=O)[nH]c1=O
EC50 (ZIKV [2]; [11]): > 100 µM

C#C[C@@]1(O)[C@H](O)[C@@H](CO[P@@](=O)(N[C@@H](C)C(=O)OC(C)C)Oc2ccccc2)O[C@H]1n1ccc(=O)[nH]c1=O [drawing 746]
EC50 (ZIKV [2]; Huh-7, read-out: ZIKV EC50): 0.5 µM
EC50 (ZIKV [1]; Zika virus, Vero): > 100000 nM

C#C[C@@]1(O)[C@H](O)[C@@H](CO[P@@](=O)(N[C@@H](C)C(=O)OC(C)C)Oc2ccccc2)O[C@H]1n1cc(F)c(=O)[nH]c1=O
EC50 (ZIKV [2]; Huh-7, read-out: ZIKV EC50): 13 µM
EC50 (ZIKV [1]; Zika virus, Vero): > 100000 nM

C#C[C@@]1(O)[C@H](O)[C@@H](CO)O[C@H]1n1cnc2cnc(N)nc21 [drawing 743]
EC50 (HRV-26): > 100 µM

CC(C)(C)C(=O)OCOP(=O)(OCOC(=O)C(C)(C)C)OC[C@H]1O[C@@H](n2ccc(=O)[nH]c2=O)C(C)(O)C1O (some centres unmarked)
CC50 at 5 days [9]: 26.4 µM
EC50 (ZIKV [1]; [12]): 3570 nM

CC1(O)C(O)[C@@H](COP(=O)(O)OP(=O)(O)OP(=O)(O)O)O[C@H]1n1ccc(=O)[nH]c1=O (some centres unmarked)
ZIKV Polymerase Assay Discrimination (ZIKV NS5 RdRp): 53

CC1(O)C(O)[C@@H](COP(=O)(O)OP(=O)(O)OP(=O)(O)O)O[C@H]1n1ccc(N)nc1=O (some centres unmarked)
ZIKV Polymerase Assay Discrimination (ZIKV NS5 RdRp): 7

C#CC1(O)C(O)[C@@H](COP(=O)(O)OP(=O)(O)OP(=O)(O)O)O[C@H]1n1ccc(=O)[nH]c1=O (some centres unmarked)
ZIKV Polymerase Assay Discrimination (ZIKV NS5 RdRp): 5
